In assay [1] the test system is other MCRs. Further details: method as in PMID 12591094, PMID 12576087. The following applies: MCRs besides MC1R; cited from earlier work.
For assay [2], the target named is Melanocortin-1 receptor (MC1R), human recombinant, in CHO-K1 cells (human) (UniProt Q01726).
Sequence of Melanocortin-1 receptor (MC1R), human recombinant, in CHO-K1 cells (human) (Q01726 whole entry): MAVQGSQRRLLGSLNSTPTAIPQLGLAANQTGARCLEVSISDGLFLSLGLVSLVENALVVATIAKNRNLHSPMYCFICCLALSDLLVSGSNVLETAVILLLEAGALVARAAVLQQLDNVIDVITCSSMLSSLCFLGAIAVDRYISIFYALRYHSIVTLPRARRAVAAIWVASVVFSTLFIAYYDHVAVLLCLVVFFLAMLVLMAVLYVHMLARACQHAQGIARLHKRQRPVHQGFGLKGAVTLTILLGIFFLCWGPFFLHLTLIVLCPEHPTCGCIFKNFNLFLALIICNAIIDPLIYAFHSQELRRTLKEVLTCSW

Regarding “Ac-Ser-Tyr-Ser-Met-Glu-His-Phe-Arg-Trp- Gly-Lys-Pro-Val-NH2 [alpha-MSH]”, the “Potency among other MCRs” value in assay [1] is on record as ≤ 5 nM.

For the substance “NDP-alpha-MSH [Nle^4, D-Phe^7] (peptide)”, in assay [2], the EC50 of MC1R activation (cAMP production, recombinant CHO-MC1R cell line; control compound) was 0.071 nM.

(Values after article PMC6940745 (International Journal of Molecular Sciences, 2019).)
